“And” between values parts separate entries of the source, which are not always exact repeats. Equal entries are not always repeated.
Tested on: human internal mammary artery (IMA) preparations
Assay: Prevention of noradrenaline-induced vasospasm in isolated human internal mammary artery rings (isolated ring technique)
Assay type: cell-based
Settings: for Prevention (%) of graft vasospasm (as % of maximal attainable spasm): IMA rings contracted with noradrenaline 1-10 μM, per patient and mean
Experimental: The effect of levosimendan to prevent vasospasm was investigated in human internal mammary artery (IMA) preparations from coronary by-pass surgery (8 patients) at three different levels of vascular tone using isolated ring technique. It is known that IMA may produce spasm during and after graft surgery especially at low perfusion pressure (at or lower than 50 mmHg).
Isometric stretch was applied perpendicular to the direction of blood flow for 45 min in organ bath containing oxygenated Krebs-Henseleit solution (37° C., pH 7.4). Magnitude of stretch (in mN) was converted into quasi-equivalent pressure values (23, 46 and 92 mmHg) according to the Laplace law. Isolated IMA rings were contracted with noradrenaline (1-10 μM), and at the steady state contraction, levosimendan (0.3 and 0.6 μM) was added cumulatively.

CC1CC(=O)NN=C1c1ccc(NN=C(C#N)C#N)cc1 (single isomer, unassigned; (-)) [Levosimendan, (−)-[[4-(1,4,5,6-tetrahydro-4-methyl-6-oxo-3-pyridazinyl)phenyl]hydrazono]propanedinitrile]
Prevention (%) of graft vasospasm (as % of maximal attainable spasm) (23 mmHg transmural pressure, levosimendan 0.3 μM): 46.1% and 27.2% and 37.5% and 60.0% and 46.7% and 40.0%
Prevention (%) of graft vasospasm (as % of maximal attainable spasm) (23 mmHg transmural pressure, levosimendan 0.6 μM): 76.9% and 125.0% and 45.5% and 62.5% and 0% and 110.0% and 113.3% and 113.0%
Prevention (%) of graft vasospasm (as % of maximal attainable spasm) (46 mmHg transmural pressure, levosimendan 0.3 μM): 28.6% and 75.0% and 13.8% and 8.3% and 57.1% and 16.2% and 37.8% and 17.3%
Prevention (%) of graft vasospasm (as % of maximal attainable spasm) (46 mmHg transmural pressure, levosimendan 0.6 μM): 85.7% and 100.0% and 41.4% and 27.1% and 114.3% and 21.6% and 78.4% and 57.7%
Prevention (%) of graft vasospasm (as % of maximal attainable spasm) (92 mmHg transmural pressure, levosimendan 0.3 μM): 16.6% and 0% and 3.9% and 8.2% and 9.6%
Prevention (%) of graft vasospasm (as % of maximal attainable spasm) (92 mmHg transmural pressure, levosimendan 0.6 μM): 61.6% and 22.0% and 14.9% and 34.7% and 26.7%
Prevention of graft vasospasm (result in words) (clinically relevant submicromolar concentrations, in particular at low perfusion pressure values): prevents graft vasospasm
